Experimental data reported in the supplement of paper PMC10307832.

How the values were obtained:
Assay in all cases: relative viability (nuclei count vs DMSO), 5 days (fraction); higher = more cells survive
NCI-H2085 = test system: NCI-H2085
Outline: (§1)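 Each reported value is a median over duplicate plates. It expresses relative viability: treated-well nuclei count divided by vehicle-well nuclei count. Lung cancer cell lines in 1536-well plates were dosed by pin tool a day after seeding, alone with one drug or with a fixed anchor-drug dose plus five library-drug doses (not always all listed) in √10 steps, and nuclei were counted after 5 days.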

H3255 = test system: H3255
Outline: as §1

NCI-H2087 = test system: NCI-H2087
Outline: as §1

NCI-H1651 = test system: NCI-H1651
Outline: as §1

NCI-H1355 = test system: NCI-H1355
Outline: as §1

SK-MES-1 = test system: SK-MES-1
Outline: as §1

LCLC-103H = test system: LCLC-103H
Outline: as §1

NCI-H650 = test system: NCI-H650
Outline: as §1

NCI-H2405 = test system: NCI-H2405
Outline: as §1

EMC-BAC-2 = test system: EMC-BAC-2
Outline: as §1

NCI-H322M = test system: NCI-H322M
Outline: as §1

UMC-11 = test system: UMC-11
Outline: as §1

NCI-H2023 = test system: NCI-H2023
Outline: as §1

NCI-H1395 = test system: NCI-H1395
Outline: as §1

NCI-H1944 = test system: NCI-H1944
Outline: as §1

EPLC-272H = test system: EPLC-272H
Outline: as §1

LCLC-97TM1 = test system: LCLC-97TM1
Outline: as §1

NCI-H1793 = test system: NCI-H1793
Outline: as §1

ChaGo-K-1 = test system: ChaGo-K-1
Outline: as §1

NCI-H520 = test system: NCI-H520
Outline: as §1

HCC-827 = test system: HCC-827
Outline: as §1

HCC-44 = test system: HCC-44
Outline: as §1

Structure (SMILES): CC1(C)CCC(c2ccc(Cl)cc2)=C(CN2CCN(c3ccc(C(=O)NS(=O)(=O)c4ccc(N[C@H](CCN5CCOCC5)CSc5ccccc5)c(S(=O)(=O)C(F)(F)F)c4)cc3)CC2)C1 [Navitoclax] + Cc1cc(Nc2cc(N3CCN(C)CC3)nc(Sc3ccc(NC(=O)C4CC4)cc3)n2)n[nH]1 [Tozasertib] (partner 0.1 µM)
- relative viability (NCI-H2085; first compound 0.005 µM): 0.804
- relative viability (NCI-H2085; first compound 0.01581 µM): 0.734
- relative viability (NCI-H2085; first compound 0.05 µM): 0.811
- relative viability (NCI-H2085; first compound 0.1581 µM): 0.772
- relative viability (NCI-H2085; first compound 0.5 µM): 0.752
- relative viability (H3255; first compound 0.005 µM): 0.532
- relative viability (H3255; first compound 0.01581 µM): 0.705
- relative viability (H3255; first compound 0.05 µM): 0.673
- relative viability (H3255; first compound 0.1581 µM): 0.585
- relative viability (H3255; first compound 0.5 µM): 0.609
- relative viability (NCI-H2087; first compound 0.005 µM): 0.245
- relative viability (NCI-H2087; first compound 0.01581 µM): 0.236
- relative viability (NCI-H2087; first compound 0.1581 µM): 0.197
- relative viability (NCI-H2087; first compound 0.5 µM): 0.294
- relative viability (NCI-H1651; first compound 0.005 µM): 0.586
- relative viability (NCI-H1651; first compound 0.01581 µM): 0.686
- relative viability (NCI-H1651; first compound 0.05 µM): 0.493
- relative viability (NCI-H1651; first compound 0.1581 µM): 0.62
- relative viability (NCI-H1651; first compound 0.5 µM): 0.66
- relative viability (NCI-H1355; first compound 0.005 µM): 0.549
- relative viability (NCI-H1355; first compound 0.01581 µM): 0.589
- relative viability (NCI-H1355; first compound 0.05 µM): 0.456
- relative viability (NCI-H1355; first compound 0.1581 µM): 0.585
- relative viability (NCI-H1355; first compound 0.5 µM): 0.518
- relative viability (SK-MES-1; first compound 0.005 µM): 0.853
- relative viability (SK-MES-1; first compound 0.01581 µM): 0.976
- relative viability (SK-MES-1; first compound 0.05 µM): 0.953
- relative viability (SK-MES-1; first compound 0.1581 µM): 0.848
- relative viability (SK-MES-1; first compound 0.5 µM): 0.952
- relative viability (LCLC-103H; first compound 0.005 µM): 0.505
- relative viability (LCLC-103H; first compound 0.01581 µM): 0.516
- relative viability (LCLC-103H; first compound 0.05 µM): 0.442
- relative viability (LCLC-103H; first compound 0.1581 µM): 0.404
- relative viability (LCLC-103H; first compound 0.5 µM): 0.466
- relative viability (NCI-H650; first compound 0.005 µM): 0.711
- relative viability (NCI-H650; first compound 0.01581 µM): 0.818
- relative viability (NCI-H650; first compound 0.05 µM): 0.781
- relative viability (NCI-H650; first compound 0.1581 µM): 0.765
- relative viability (NCI-H650; first compound 0.5 µM): 0.718
- relative viability (NCI-H2405; first compound 0.005 µM): 0.761
- relative viability (NCI-H2405; first compound 0.01581 µM): 0.787
- relative viability (NCI-H2405; first compound 0.05 µM): 0.735
- relative viability (NCI-H2405; first compound 0.1581 µM): 0.731
- relative viability (NCI-H2405; first compound 0.5 µM): 0.681
- relative viability (EMC-BAC-2; first compound 0.005 µM): 0.273
- relative viability (EMC-BAC-2; first compound 0.01581 µM): 0.27
- relative viability (EMC-BAC-2; first compound 0.05 µM): 0.243
- relative viability (EMC-BAC-2; first compound 0.1581 µM): 0.273
- relative viability (EMC-BAC-2; first compound 0.5 µM): 0.263
- relative viability (NCI-H322M; first compound 0.005 µM): 0.48
- relative viability (NCI-H322M; first compound 0.01581 µM): 0.579
- relative viability (NCI-H322M; first compound 0.05 µM): 0.491
- relative viability (NCI-H322M; first compound 0.1581 µM): 0.548
- relative viability (NCI-H322M; first compound 0.5 µM): 0.532
- relative viability (UMC-11; first compound 0.005 µM): 0.196
- relative viability (UMC-11; first compound 0.01581 µM): 0.184
- relative viability (UMC-11; first compound 0.05 µM): 0.207
- relative viability (UMC-11; first compound 0.1581 µM): 0.2
- relative viability (UMC-11; first compound 0.5 µM): 0.188
- relative viability (NCI-H2023; first compound 0.005 µM): 0.384
- relative viability (NCI-H2023; first compound 0.01581 µM): 0.32
- relative viability (NCI-H2023; first compound 0.05 µM): 0.357
- relative viability (NCI-H2023; first compound 0.1581 µM): 0.36
- relative viability (NCI-H2023; first compound 0.5 µM): 0.244
- relative viability (NCI-H1395; first compound 0.005 µM): 0.703
- relative viability (NCI-H1395; first compound 0.01581 µM): 0.738
- relative viability (NCI-H1395; first compound 0.05 µM): 0.757
- relative viability (NCI-H1395; first compound 0.1581 µM): 0.787
- relative viability (NCI-H1395; first compound 0.5 µM): 0.81
- relative viability (NCI-H1944; first compound 0.005 µM): 0.254
- relative viability (NCI-H1944; first compound 0.01581 µM): 0.246
- relative viability (NCI-H1944; first compound 0.05 µM): 0.241
- relative viability (NCI-H1944; first compound 0.1581 µM): 0.259
- relative viability (NCI-H1944; first compound 0.5 µM): 0.206
- relative viability (EPLC-272H; first compound 0.005 µM): 0.28
- relative viability (EPLC-272H; first compound 0.05 µM): 0.313
- relative viability (EPLC-272H; first compound 0.1581 µM): 0.204
- relative viability (EPLC-272H; first compound 0.5 µM): 0.242
- relative viability (LCLC-97TM1; first compound 0.005 µM): 0.238
- relative viability (LCLC-97TM1; first compound 0.01581 µM): 0.164
- relative viability (LCLC-97TM1; first compound 0.05 µM): 0.255
- relative viability (LCLC-97TM1; first compound 0.1581 µM): 0.193
- relative viability (LCLC-97TM1; first compound 0.5 µM): 0.224
- relative viability (NCI-H1793; first compound 0.005 µM): 0.338
- relative viability (NCI-H1793; first compound 0.01581 µM): 0.394
- relative viability (NCI-H1793; first compound 0.1581 µM): 0.278
- relative viability (NCI-H1793; first compound 0.5 µM): 0.275
- relative viability (ChaGo-K-1; first compound 0.005 µM): 0.238
- relative viability (ChaGo-K-1; first compound 0.01581 µM): 0.225
- relative viability (ChaGo-K-1; first compound 0.05 µM): 0.184
- relative viability (ChaGo-K-1; first compound 0.1581 µM): 0.239
- relative viability (ChaGo-K-1; first compound 0.5 µM): 0.216
- relative viability (NCI-H520; first compound 0.005 µM): 0.511
- relative viability (NCI-H520; first compound 0.01581 µM): 0.408
- relative viability (NCI-H520; first compound 0.05 µM): 0.419
- relative viability (NCI-H520; first compound 0.1581 µM): 0.376
- relative viability (NCI-H520; first compound 0.5 µM): 0.392
- relative viability (HCC-827; first compound 0.005 µM): 0.437
- relative viability (HCC-827; first compound 0.01581 µM): 0.453
- relative viability (HCC-827; first compound 0.05 µM): 0.384
- relative viability (HCC-827; first compound 0.1581 µM): 0.39
- relative viability (HCC-827; first compound 0.5 µM): 0.454
- relative viability (HCC-44; first compound 0.05 µM): 1.1
- relative viability (HCC-44; first compound 0.5 µM): 0.613
